Reference: patent EP0103895A2, “Novel hydroxylamine derivatives, production and use thereof” (MEIJI SEIKA KABUSHIKI KAISHA, priority 1982, dated 1984)
Where two headings read alike, the source gives them in different places.

Key:
[1] = test system: fowl roundworm (Ascaridia galli); assay: Anthelmintic test in chickens artificially infected with fowl roundworm, single oral dose in gelatin capsule, worm bodies counted within 48 hours (Test Examples A1, B1, C1, D1); assay type: in vivo
Method: Chickens infected artificially with fowl roundworm (Ascaridia galli) were employed in groups each consisting of three chickens. Fecal matter testing was conducted before administration of medicine to confirm infection with the worm. The quantity of the compound provided for testing was 10 mg and 20 mg per Kg of body weight, which was orally administered each in a gelatin capsule to the chicken. The number of worm bodies discharged within 48 hours after administration of medicine was counted, the chicken was killed after 48 hours and the number of worm bodies remaining in the enteron was counted to determine the anthelmintic percentage, wherefrom the antihelmintic effect was judged.
The same as that in Test Example Al.
The same as that in Test Example Al except that the compound provided for testing was in quantities of 30 mg and 50 mg per Kg of body weight, which were orally administered to the chickens in gelatin capsules.
The same as that in Test Example Al, except that the compounds provided for testing were used in quantities of 15 mg and 30 mg per Kg of body weight, which were orally administered each in a gelatin capsule to the chicken.

[2] = test system: fowl roundworm (As. galli); assay: Anthelmintic test in chickens artificially infected with fowl roundworm, compound added to feed, E.P.G. and worm count up to 21st day (Test Examples A2, B2, C2, D2); assay type: in vivo, Ascaridia galli; settings: Ascaridia galli, 504 h, read-out: Anthelmintic effect; for inhibition in vivo at 25 ppm: 25 ppm in feed; for inhibition in vivo at 20 ppm: 20 ppm added to feed
Method: Chickens artificially infected with fowl roundworm (As. galli) were employed in groups each of two chickens.
Fecal matter testing was conducted before initiation of the test and on the 7th, 14th and 21st day after initiation of the test. Reduction in worm egg number was examined by calculating E.P.G. (worm eggs per 1 g of fecal matter), and the number of discharged worm bodies and the number of worm bodies remaining in the enteron when the chicken was killed on 21st day were counted to determine the anthelmintic percentage, from which the anthelmintic effect was judged.

[3] = Ascaridia galli, po, 48 h, chicken, 30 mg/Kg oral in gelatin capsule, chickens No.1-3, read-out: Anthelmintic effect after 48 hours
[4] = feed or water, chicken, 50 ppm in feed
[5] = Ascaridia galli, po, 48 h, chickens, 30 mg/Kg orally in gelatin capsule, one value per chicken (No.1-3), read-out: Anthelmintic effect after 48 hours
[6] = Ascaridia galli, po, 48 h, chickens, 50 mg/Kg orally in gelatin capsule, one value per chicken (No.1-3), read-out: Anthelmintic effect after 48 hours
[7] = po, chickens, worm count on 21st day, one value per chicken
[8] = po, chickens, 50 ppm added to feed, worm count on 21st day, one value per chicken

| SMILES | inhibition in vivo at 30 mg/kg [1, 5] [%] | inhibition in vivo at 50 mg/kg [1, 6] [%] | inhibition in vivo at 20 ppm [2, 7] [%] | inhibition in vivo at 50 ppm [2, 8] [%] | also measured |
| --- | --- | --- | --- | --- | --- |
| C=CCNOCCC [Compound D2, N-allyl-0-propylhydroxylamine] | – | – | – | – | inhibition in vivo at 30 mg/kg [1, 3]: 100%; inhibition in vivo at 25 ppm ([2]; feed or water, chicken): 80 to 90%; inhibition in vivo at 50 ppm [2, 4]: 100% |
| CC=CCN(OCC)C(C)=O [Compound B16, N-crotyl-N-acetyl-O-ethylhydroxylamine] | 100 | 100 | 100 | 100 | – |
| C#CCONCC=C [Compound D5] | – | – | – | – | inhibition in vivo at 15 mg/kg ([1]; Ascaridia galli, po, 48 h, chicken, 15 mg/Kg oral in gelatin capsule, chickens No.1-3, read-out: Anthelmintic effect after 48 hours): 100%; inhibition in vivo at 30 mg/kg [1, 3]: 100%; Anthelmintic effect after 48 hours ([1]; chicken, 15 mg/Kg oral in gelatin capsule, chickens No.1-3, 15 mg/kg): +++ (100%); Anthelmintic effect after 48 hours ([1]; chicken, 30 mg/Kg oral in gelatin capsule, chickens No.1-3): +++ (100%); inhibition in vivo at 25 ppm ([2]; feed or water, chicken): 80 to 90%; inhibition in vivo at 50 ppm [2, 4]: 100% |
| C=CCN(OCCCC)C(C)=O [Compound B18, N-allyl-N-acetyl-0-butylhydroxylamine] | 100 | 100 | 100 | 100 | – |
| C=CCN(OCCC)C(C)=O [Compound B17, N-allyl-N-acetyl-O-propylhydroxylamine] | 100 | 100 | 80 to 90 | 100 | – |
| C=CCN(C=O)OC [Compound B6, N-allyl-N-formyl-O-methylhydroxylamine] | 100 | 100 | 80 to 90 | 100 | – |
| C=CCN(OCC)C(=O)c1ccc(F)cc1 [Compound B14, N-allyl-N-(p-fluorobenzoyl)-O-ethylhydroxylamine] | 100 | 100 | – | – | – |
| C=CCN(OC)C(=O)CCCCCCC/C=C\CCCCCCCC [Compound B4, N-allyl-N-oleoyl-O-methylhydroxylamine] | 100 | 100 | 100 | 100 | – |
| CC=CCN(OC)C(C)=O [Compound B7, N-crotyl-N-acetyl-O-methylhydroxylamine] | 100 | 100 | – | – | – |
| C=CCON(CC=C)C(=O)CCCCCCCCCCCCCCCCC [Compound C5] | – | – | – | – | inhibition in vivo at 30 mg/kg [1, 3]: 80 to 90%; inhibition in vivo at 50 mg/kg ([1]; Ascaridia galli, po, 48 h, chicken, 50 mg/Kg oral in gelatin capsule, chickens No.1-3, read-out: Anthelmintic effect after 48 hours): 80 to 90%; inhibition in vivo at 25 ppm ([2]; feed or water, chicken): 80 to 90%; inhibition in vivo at 50 ppm [2, 4]: 100% |
| C=CCN(OCC)C(=O)CC(C)C [Compound B11, N-allyl-N-isovaleroyl-O-ethylhydroxylamine] | 100 | 100 | – | – | – |
| C=CCN(OC)C(=O)CC [Compound B2, N-allyl-N-propionyl-O-methylhydroxylamine] | 100 | 100 | 80 to 90 | 100 | – |
